# Assay results from US10208043B2, “Methods for inhibiting fascin” (Novita Pharmaceuticals, Inc., priority 2012, dated 2019).
# Assays:
# 4T1 breast tumor cells = test: Boyden-chamber cell migration assay, 4T1; assay type: cell-based
# Description: Since fascin is critical for tumor cell migration, inhibitors of fascin should block tumor cell migration. Representative compounds were selected from the above-identified fascin inhibitors to test their abilities on inhibition of tumor cell migration (See Table 2). […] The cell lines used are listed below.
# Exemplifying procedure: MDA-MB-231 cells (5×10^4) or 4T1 Cells (1×10^5) suspended in 100 μL starvation medium were added to the upper chamber of an insert (6.5 mm diameter, 8 μm pore size; Becton Dickson), and the insert was placed in a 24-well plate containing 700 μL starvation medium with or without 10% FBS. […] Migration assays were performed for 6 h and cells were fixed with 3.7% formaldehyde. Cells were stained with crystal violet staining solution, and cells on the upper side of the insert were removed with a cotton swab. Three randomly selected fields (×10 objectives) on the lower side of the insert were photographed, and the migrated cells were counted. Migration was expressed as average number of migrated cells in a field.
# fascin = fascin (Homo sapiens (Human), UniProt Q16658); test: High throughput fascin inhibition assay (actin bundling, F-actin imaging); assay type: biochemical
# Description: A high throughput assay was developed to screen for fascin specific inhibitors. Purified polymerized F-actin with or without fascin were mixed and incubated to allow actin bundle formation. F-actin polymers were then bound to the poly-D-lysine coated plates. […] Four images were taken from each well and the average fiber length was analyzed for each tested compound.
# Recombinant human fascin 1 was expressed as a GST fusion protein in BL21 Escherichia coli. One liter of 2YT medium with ampicillin was inoculated overnight with 3 mL of BL21/DE3 culture transformed with pGEX4T-fascin 1 plasmid and grown at 37° C. until attenuance at 600 nm (D600) reached about 0.8. The culture was then transferred to 18° C. and induced by the addition of 0.1 mM isopropyl β-d-thiogalactoside (IPTG) for 12 h. Bacteria were harvested by centrifugation at 5,000 r.p.m. for 10 min. The pellets were suspended in 30 mL of PBS supplemented with 0.2 mM PMSF, 1 mM DTT, 1% (v/v) Triton X-100 and 1 mM EDTA. After sonication, the suspension was centrifuged at 15,000 r.p.m. for 30 min to remove the cell debris. The supernatant was then incubated for 2 h with 4 mL of glutathione beads (Sigma) at 4° C. After extensive washing with PBS, the beads were resuspended in 10 mL of thrombin cleavage buffer (20 mM Tris-HCl pH 8.0, 150 mM NaCl, 2 mM CaCl2, 1 mM DTT). Fascin was released from the beads by incubation overnight with 40-100 U of thrombin at 4° C. After centrifugation, 0.2 mM PMSF was added to the supernatant to inactivate the remnant thrombin activity. The fascin protein was further concentrated with a Centricon® (Boca Raton, Fla.) filter to about 50 mg/mL.
# About 150,000 compounds were screened. […] Purified fascin protein (15 μL of 0.5 μM) in buffer (100 mM KCl, 20 mM Tris/HCl, pH 7.5, 2 mM MgCl2) was added into each well of a clear 384-well flat-bottom plate (Corning) using Thermo Multidrop Combi (Fisher). Compound ([…]) solutions (5 mM stock) from various chemical libraries were pin transferred from stock 384-well plates into the 384-well assay plates and incubated for 30 min. Then 15 μL of 0.5 μM polymerized actin (in 100 mM KCl, 20 mM Tris/HCl, pH 7.5, 2 mM MgCl2, 1 mM DTT, 1 mM ATP) (Cytoskeleton Inc.) was added, resulting in 30 μM final concentration for chemical compounds. […] Mixed solution (25 μL) was then transferred to one well in a black 384-well plate coated with poly-D-lysine, and stained actin bundles or F-actin would stick onto the poly-D-lysine plates. After the plates were thoroughly washed with 1×PBS for 3 times, the plate was imaged using an ImageXpress Micro High Content Screening System (Molecular devices). The images were processed and analyzed using MetaMorph software. The raw image data for each well was background-corrected by subtraction of the median intensities across all wells on the plate. The background-corrected data was used to compute the bundle length for each well. The negative control wells were employed for quality control: multiple DMSO-only control wells (16 wells/plate) were present on each assay plate.
SMILES,IC50 (4T1 breast tumor cells) [µM],IC50 (fascin) [µM]
"O=C(/C=C/c1ccccc1)Nc1nc2ccccc2s1 [Compound 20, N-(benzo[d]thiazol-2-yl)cinnamamide]",~60,~4
"CNc1nc(-c2ccccc2)[n+](-c2ccccc2)s1 [Compound 5, N-methyl-2,3-diphenyl-1,2,4-thiadiazolium-5-amine]",30,0.5
"O=C(Cn1cnc2c(cnn2C2CCS(=O)(=O)C2)c1=O)NCc1ccc(F)cc1 [Compound 24, N-(4-fluorobenzyl)-2-(4-oxo-1-(S,S-dioxo-tetrahydrothiophen-3-yl)-1H-pyrazolo[3,4-d]pyrimidin-5(4H)-yl)acetamide]",,4.3
"O=S(=O)(Nc1nc2ccc(F)cc2s1)c1cccc(Cl)c1Cl [Compound 18, 2,3-dichloro-N-(6-fluorobenzo[d]thiazol-2-yl)benzenesulfonamide]",~3,~13
"O=S(=O)(Nc1cc(Sc2nc[nH]n2)c(O)c2ccccc12)c1ccc(Br)cc1 [Compound 14, N-(3-(1H-1,2,4-triazol-3-ylthio)-4-hydroxynaphthalen-1-yl)-4-bromobenzenesulfonamide]",~25,2.62
"Cc1ccc(-n2ncc3c(=O)n(Cc4ccc(Cl)c(Cl)c4)cnc32)c(C)c1 [Compound 32, 5-(3,4-dichlorobenzyl)-1-(2,4-dimethylphenyl)-1H-pyrazolo[3,4-d]pyrimidin-4(5H)-one]",,2.1
"O=C(Nc1nn(Cc2ccc(C(F)(F)F)cc2)c2ccccc12)c1ccco1 [Compound 2, N-(1-(4-(trifluoromethyl)benzyl)-1H-indazol-3-yl)furan-2-carboxamide]",,2
"O=c1c2cnn(CCO)c2ncn1Cc1cccc(Cl)c1 [Compound 21, 5-(3-chlorobenzyl)-1-(2-hydroxyethyl)-1H-pyrazolo[3,4-d]pyrimidin-4(5H)-one]",,1.2
"O=c1c2cnn(C3CCS(=O)(=O)C3)c2ncn1Cc1ccc(Cl)c(Cl)c1 [Compound 1, 5-(3,4-dichlorobenzyl)-1-(S,S,-dioxo-tetrahydrothiophen-3-yl)-1H-pyrazolo[3,4-d]pyrimidin-4(5H)-one]",,0.734
"CCc1ccc(S(=O)(=O)Nc2cc(Sc3nc[nH]n3)c(O)c3ccccc23)cc1 [Compound 11, N-(3-(1H-1,2,4-triazol-3-ylthio)-4-hydroxynaphthalen-1-yl)-4-ethylbenzenesulfonamide]",~20,0.89
"Cc1ccc(S(=O)(=O)Nc2cc(Sc3nc[nH]n3)c(O)c3ccccc23)c(C)c1 [Compound 15, N-(3-(1H-1,2,4-triazol-3-ylthio)-4-hydroxynaphthalen-1-yl)-2,4-dimethylbenzenesulfonamide]",> 30,2.7
"Cc1cccc(-n2ncc3c(=O)n(Cc4ccc(Cl)c(Cl)c4)cnc32)c1C [Compound 31, 5-(3,4-dichlorobenzyl)-1-(2,3-dimethylphenyl)-1H-pyrazolo[3,4-d]pyrimidin-4(5H)-one]",,2.3
"O=C(Cn1cnc2c(cnn2C2CCS(=O)(=O)C2)c1=O)Nc1ccc(Cl)cc1 [Compound 26, N-(4-chlorophenyl)-2-(4-oxo-1-(S,S-dioxo-tetrahydrothiophen-3-yl)-1H-pyrazolo[3,4-d]pyrimidin-5(4H)-yl)acetamide]",,4.3
"CC(=O)Nc1nc2ccc(Cl)cc2s1 [Compound 19, N-(6-chlorobenzo[d]thiazol-2-yl)acetamide]",~25,~2
"O=S(=O)(Nc1nc2ccc(Oc3ccccc3)cc2s1)c1cccc(Cl)c1 [Compound 16, 3-chloro-N-(6-phenoxybenzo[d]thiazol-2-yl)benzenesulfonamide]",~7,~4
"O=C(Cn1cnc2c(cnn2C2CCS(=O)(=O)C2)c1=O)Nc1cccc(C(F)(F)F)c1 [Compound 23, 2-(4-oxo-1-(S,S,-dioxo-tetrahydrothiophen-3-yl)-1H-pyrazolo[3,4-d]pyrimidin-5(4H)-yl)-N-(3-(trifluoromethyl)phenyl)acetamide]",,3.4
"Cc1cc(C)c(S(=O)(=O)Nc2cc(Sc3nc[nH]n3)c(O)c3ccccc23)cc1C [Compound 12, N-(3-(1H-1,2,4-triazol-3-ylthio)-4-hydroxynaphthalen-1-yl)-2,4,5-trimethylbenzenesulfonamide]",16,0.539
"CCOc1ccc(S(=O)(=O)Nc2cc(Sc3nc[nH]n3)c(O)c3ccccc23)cc1 [Compound 9, N-(3-(1H-1,2,4-triazol-3-ylthio)-4-hydroxynaphthalen-1-yl)-4-ethoxybenzenesulfonamide]",> 20,1.47
"O=C(Cn1cnc2c(cnn2C2CCS(=O)(=O)C2)c1=O)c1ccc2c(c1)OCCO2 [Compound 27, 5-(2-(2,3-dihydrobenzo[b][1,4]dioxin-6-yl)-2-oxoethyl)-1-(S,S-dioxo-tetrahydrothiophen-3-yl)-1H-pyrazolo[3,4-d]pyrimidin-4(5H)-one]",,~10
"O=[N+]([O-])c1cccc(S(=O)(=O)Nc2nc3ccc(F)cc3s2)c1 [Compound 17, N-(6-fluorobenzo[d]thiazol-2-yl)-3-nitrobenzenesulfonamide]",~60,~4
"c1ccc(Nc2nc(-c3ccccc3)[n+](-c3ccccc3)s2)cc1 [Compound 7, N-phenyl-2,3-diphenyl-1,2,4-thiadiazolium-5-amine]",> 50,2
"O=C(Cn1cnc2c(cnn2C2CCS(=O)(=O)C2)c1=O)NCc1ccc2c(c1)OCO2 [Compound 25, N-(benzo[d][1,3]dioxol-5-ylmethyl)-2-(4-oxo-1-(S,S-dioxo-tetrahydrothiophen-3-yl)-1H-pyrazolo[3,4-d]pyrimidin-5(4H)-yl)acetamide]",,4.6
"c1ccc(CNc2nc(-c3ccccc3)[n+](-c3ccccc3)s2)cc1 [Compound 6, N-benzyl-2,3-diphenyl-1,2,4-thiadiazolium-5-amine]",,5
"Cc1ccccc1-n1ncc2c(=O)n(Cc3ccc(Cl)c(Cl)c3)cnc21 [Compound 30, 5-(3,4-dichlorobenzyl)-1-o-tolyl-1H-pyrazolo[3,4-d]pyrimidin-4(5H)-one]",,2
"Cc1ccc(C)c(S(=O)(=O)Nc2cc(Sc3nc[nH]n3)c(O)c3ccccc23)c1 [Compound 8, N-(3-(1H-1,2,4-triazol-3-ylthio)-4-hydroxynaphthalen-1-yl)-2,5-dimethylbenzenesulfonamide]",20,0.683
"Cc1ccc(C(=O)Cn2cnc3c(cnn3C3CCS(=O)(=O)C3)c2=O)c(C)c1 [Compound 28, 5-(2-(2,4-dimethylphenyl)-2-oxoethyl)-1-(S,S-dioxo-tetrahydrothiophen-3-yl)-1H-pyrazolo[3,4-d]pyrimidin-4(5H)-one]",,4.7
"O=C1C(Sc2nc[nH]n2)=C/C(=N/S(=O)(=O)c2ccccc2)c2ccccc21 [Compound 13, (Z)-N-(3-(1H-1,2,4-triazol-3-ylthio)-4-oxonaphthalen-1(4H)-ylidene)benzenesulfonamide]",> 30,2
"O=C(Cn1cnc2c(cnn2C2CCS(=O)(=O)C2)c1=O)c1ccc2c(c1)OCO2 [Compound 29, 5-(2-(benzo[d][1,3]dioxol-5-yl)-2-oxoethyl)-1-(S,S-dioxo-tetrahydrothiophen-3-yl)-1H-pyrazolo[3,4-d]pyrimidin-4(5H)-one]",,3.7
